{"source": "patent US4636464A", "about": "(priority 1985, dated 1987)", "type_in_all_cases": "biochemical, Coriolus versicolor", "key": {"pyranose oxidase [1]": {"target": "T1, pyranose oxidase (Trametes versicolor, UniProt P79076)", "T1 construct": "made in house; not recombinant", "assay": "Electron acceptor test (Thunberg tube, absorbancy change)", "experimental": "In this phase, 1.4 ml of 50 mM tris-hydrochloride buffer (pH 7.0), 0.1 ml of 250 mU enzyme solution and 0.5 ml of electron acceptor solutions having various concentrations as indicated in Table 2 are put into a cell with Thunberg tube. […] The change in absorbancy per minute from 30 minutes to 90 minutes after the mixturing is determined and the activities of the electron acceptors are expressed as relative activity."}, "pyranose oxidase [2]": {"target": "T1, pyranose oxidase", "settings": "for Percent Inhibition (%): 0.2 ml of 18.5 mM inhibitor solution, 280 mU pyranose oxidase, pH 7.0, 37° C.", "description": "The inhibitor is studied in the same manner as that adopted in determination of the optimum pH."}, "pyranose oxidase [3]": {"target": "T1, pyranose oxidase", "assay": "biochemical", "parameters": "activity: dose or concentration left out as unconfirmed", "settings": "for activity at 100000 µM: pH 7, read-out: Relative Activity (%); for activity: pH 7, read-out: Relative Activity (%); for Substrate specificity in words: same test as Table 1", "experimental": "Said coloring reagent is prepared by adding 0.1M tris-hydrochloride buffer (pH 7.0) containing 10 m mol/l 4-aminoantipyrine(hereinafter referred to as 4AA) and 10 m mol/l phenol, to peroxidase in a concentration of 2000 U per 100 ml of the buffer. The increasing rate of the absorbancy at 500 nm is automatically measured on a spectrophotometer. The molecular extinction coefficient of a quinoneimine pigment formed under these conditions is defined as 5.3×10^3, and one unit of the enzymatic activity is also defined as the amount of the enzyme that produces one μ mole of hydrogen peroxide per minute at a temperature of 37° C. and at a pH of 7.0.\nThe results are expressed as percentages of the glucose reaction."}, "[4]": {"settings": "electron acceptor solution 0.1 mM, pH 7.0, dissolved oxygen removed, read-out: Relative Activity (%)"}, "[5]": {"settings": "electron acceptor solution 0.1 mM, pH 7.0, dissolved oxygen removed"}}, "data": [{"molecule": "O=C1C(Cl)=CC(=Nc2ccc(O)cc2)C=C1Cl", "note": "[2,6-Dichlorophenolindophenol]", "values": [{"measurement": "Suitability as electron acceptor in words", "setting": "pyranose oxidase [1]", "result": "may be made electron acceptor"}, {"measurement": "activity at 40 µM (stock)", "setting": "pyranose oxidase [1]; electron acceptor solution 0.04 mM, pH 7.0, dissolved oxygen removed, read-out: Relative Activity (%)", "result": 2.5, "unit": "%"}]}, {"molecule": "NC(=O)c1ccc[n+]([C@@H]2O[C@H](COP(=O)([O-])OP(=O)(O)OC[C@H]3O[C@@H](n4cnc5c(N)ncnc54)[C@H](OP(=O)(O)O)[C@@H]3O)[C@@H](O)[C@H]2O)c1", "note": "[Nicotinamide-adenine dinucleotide phosphate]", "values": [{"measurement": "activity at 100 µM (stock)", "setting": "pyranose oxidase [1]; [4]", "result": 0, "unit": "%"}]}, {"molecule": "NC(=O)c1ccc[n+]([C@@H]2O[C@H](COP(=O)([O-])OP(=O)(O)OC[C@H]3O[C@@H](n4cnc5c(N)ncnc54)[C@H](O)[C@@H]3O)[C@@H](O)[C@H]2O)c1", "note": "[Nicotinamide-adenine dinucleotide]", "values": [{"measurement": "activity at 100 µM (stock)", "setting": "pyranose oxidase [1]; [4]", "result": 0, "unit": "%"}]}, {"molecule": "O=O", "note": "[Oxygen]", "values": [{"measurement": "Suitability as electron acceptor in words", "setting": "pyranose oxidase [1]", "result": "optimum electron acceptor"}, {"measurement": "Relative Activity (%)", "setting": "pyranose oxidase [1]; electron acceptor: dissolved oxygen, pH 7.0, glucose substrate", "result": 100, "unit": "%"}]}, {"molecule": "O=S(=O)([O-])[O-].[Co+2]", "note": "[cobalt sulfate]", "values": [{"measurement": "Percent Inhibition (%)", "setting": "pyranose oxidase [2]", "result": 13.3, "unit": "%"}]}, {"molecule": "O=S(=O)([O-])[O-].[Cu+2]", "note": "[copper sulfate]", "values": [{"measurement": "Inhibition of the enzymatic action in words", "setting": "pyranose oxidase [2]", "result": "inhibited"}, {"measurement": "Percent Inhibition (%)", "setting": "pyranose oxidase [2]", "result": 35.7, "unit": "%"}]}, {"molecule": "O=C(CO)[C@@H](O)[C@H](O)[C@H](O)CO", "note": "[fructose]", "values": [{"measurement": "activity at 100000 µM", "setting": "pyranose oxidase [3]", "result": 0, "unit": "%"}]}, {"molecule": "O=C(O)[C@H](O)[C@@H](O)[C@H](O)[C@H](O)CO", "note": "[gluconic acid]", "values": [{"measurement": "activity", "setting": "pyranose oxidase [3]", "result": 0, "unit": "%"}]}, {"molecule": "N[C@H]1C(O)O[C@H](CO)[C@@H](O)[C@@H]1O", "note": "(stereo partly shown) [glucosamine]", "values": [{"measurement": "activity", "setting": "pyranose oxidase [3]", "result": 0, "unit": "%"}]}, {"molecule": "OC[C@H]1O[C@@H](O[C@H]2[C@H](O)[C@@H](O)C(O)O[C@@H]2CO)[C@H](O)[C@@H](O)[C@H]1O", "note": "(stereo partly shown) [lactose]", "values": [{"measurement": "activity", "setting": "pyranose oxidase [3]", "result": 0, "unit": "%"}]}, {"molecule": "O=S(=O)([O-])[O-].[Mg+2]", "note": "[magnesium sulfate]", "values": [{"measurement": "Percent Inhibition (%)", "setting": "pyranose oxidase [2]", "result": 0, "unit": "%"}]}, {"molecule": "OC[C@H]1O[C@H](O[C@H]2[C@H](O)[C@@H](O)[C@H](O)O[C@@H]2CO)[C@H](O)[C@@H](O)[C@@H]1O", "note": "[maltose]", "values": [{"measurement": "activity", "setting": "pyranose oxidase [3]", "result": 0, "unit": "%"}]}, {"molecule": "OC[C@@H](O)[C@@H](O)[C@H](O)[C@H](O)CO", "note": "[mannitol]", "values": [{"measurement": "activity", "setting": "pyranose oxidase [3]", "result": 0, "unit": "%"}]}, {"molecule": "O=C(O)c1cc[c]([Hg][Cl])cc1", "note": "[p-chloromercuribenzoate]", "values": [{"measurement": "Inhibition of the enzymatic action in words", "setting": "pyranose oxidase [2]", "result": "inhibited"}, {"measurement": "Percent Inhibition (%)", "setting": "pyranose oxidase [2]", "result": 50.0, "unit": "%"}]}, {"molecule": "O=[N+]([O-])[O-].[Ag+]", "note": "[silver nitrate]", "values": [{"measurement": "Inhibition of the enzymatic action in words", "setting": "pyranose oxidase [2]", "result": "inhibited"}, {"measurement": "Percent Inhibition (%)", "setting": "pyranose oxidase [2]", "result": 53.3, "unit": "%"}]}, {"molecule": "O=C(CO)[C@H](O)[C@@H](O)[C@H](O)CO", "note": "[sorbose]", "values": [{"measurement": "activity at 100000 µM", "setting": "pyranose oxidase [3]", "result": 3.4, "unit": "%"}, {"measurement": "Substrate specificity in words", "setting": "pyranose oxidase [3]", "result": "acts upon"}]}, {"molecule": "OC[C@H]1O[C@H](O[C@H]2O[C@H](CO)[C@@H](O)[C@H](O)[C@H]2O)[C@H](O)[C@@H](O)[C@@H]1O", "note": "[trehalose]", "values": [{"measurement": "activity", "setting": "pyranose oxidase [3]", "result": 0, "unit": "%"}]}, {"molecule": "OC1OC[C@@H](O)[C@H](O)[C@H]1O", "note": "(stereo partly shown) [xylose]", "values": [{"measurement": "activity", "setting": "pyranose oxidase [3]", "result": 2.6, "unit": "%"}, {"measurement": "Substrate specificity in words", "setting": "pyranose oxidase [3]", "result": "acts upon"}]}, {"molecule": "Cytochrome C", "values": [{"measurement": "Suitability as electron acceptor in words", "setting": "pyranose oxidase [1]", "result": "may be made electron acceptor"}, {"measurement": "Relative Activity (%)", "setting": "pyranose oxidase [1]; [5]", "result": 0.33, "unit": "%"}]}, {"molecule": "Nitroprusside-tetrazolium", "values": [{"measurement": "Relative Activity (%)", "setting": "pyranose oxidase [1]; [5]", "result": 0, "unit": "%"}]}]}
